Experimental findings from ChEMBL document CHEMBL1806427, “Pyridine-derived γ-secretase modulators” (Bioorg Med Chem Lett, 2011) are described below.

Activity calls are given as the source filed them.

The target in data set [1] is Gamma-secretase. The data set is described as follows: Inhibition of gamma-secretase in human SHSY5Y cells expressing human recombinant Swedish variant of APP K595N/M596L assessed as reduction of amyloid beta42 level after 48 hrs by AlphaLISA assay. The class given is cell-based. As to conditions: sh-sy5y.
Data set [2] addresses Gamma-secretase. The data set is described as follows: Inhibition of gamma-secretase in human SHSY5Y cells expressing human recombinant Swedish variant of APP K595N/M596L assessed as reduction of amyloid beta40 level after 48 hrs by AlphaLISA assay. Type of data set: cell-based. The following applies: sh-sy5y. In general terms: Bead proximity is the source of the signal in Alpha formats.

Data set [3] can be described thus: Inhibition of gamma-secretase expressed in african green monkey CV1 cells co-expressing Gal4 DNA-binding/transactivation domain assessed as inhibition of notch processing after 22 hrs by luciferase reporter assay. Type of data set: cell-based. The following applies: CV-1, 22 h.
The test system of the next data set is SH-SY5Y. The data set is described as follows: Toxicity in human SH-SY5Y cells assessed as cell viability up to 3 uM by WST-1 assay. The class given is cell-based. Background: Tetrazolium assays rely on reduction of a dye to a coloured formazan, in cell work by metabolically active cells.
In a further data set the test system is Blood. Put plainly: Drug level in Sprague-Dawley rat blood at 30 mg/kg, po. As to conditions: in vivo, read-out: Drug uptake. Type of data set: ADME, organism-based. More on the design: dose 30 mg/kg, route oral.
A further data set concerns Brain. The data set is described as follows: Drug level in Sprague-Dawley rat brain at 30 mg/kg, po. The class given is ADME, organism-based. Details: dose 30 mg/kg, route oral. As to conditions: in vivo, read-out: Drug uptake.
Data set [4] is described as follows: Ratio of drug level in brain to blood in Sprague-Dawley rat at 30 mg/kg, po. More on the design: dose 30 mg/kg, route oral. The class given is ADME, organism-based. As to conditions: brain/whole blood, read-out: BBR.
Data set [5] deals with Rattus norvegicus. The data set is described as follows: Antialzheimer activity in Sprague-Dawley rat assessed as reduction of amyloid beta42 level in brain at 30 mg/kg/day, po for 5 days measured 6 hrs after last dose. The class given is functional. Details: scale not given: the % may be the effect or the level left.
A short description of data set [6]: Drug level in Sprague-Dawley rat brain at 30 mg/kg/day, po for 5 days measured 6 hrs after last dose. Type of data set: ADME, organism-based. More on the design: route oral. As to conditions: read-out: Drug uptake.
Data set [7] concerns Rattus norvegicus. Put plainly: Toxicity in Sprague-Dawley rat assessed as effect on Notch-mediated Hes-1 mRNA level in ileum at 30 mg/kg/day, po for 5 days measured 6 hrs after last dose. The class given is organism-based. Details: route oral. The following applies: in vivo.
Data set [8] deals with Rattus norvegicus. Put plainly: Toxicity in Sprague-Dawley rat assessed as effect on Notch-mediated CD4 level in thymocytes at 30 mg/kg/day, po for 5 days measured 6 hrs after last dose. Type of data set: organism-based. Details: route oral. As to conditions: in vivo.
The test system of data set [9] is Rattus norvegicus. The data set is described as follows: Toxicity in Sprague-Dawley rat assessed as effect on Notch-mediated CD8 level in thymocytes at 30 mg/kg/day, po for 5 days measured 6 hrs after last dose. The class given is organism-based. More on the design: route oral. As to conditions: in vivo.
A short description of data set [10]: Blood clearance in Sprague-Dawley rat at 1 mg/kg, iv and 2 mg/kg, po. Type of data set: ADME, organism-based. As to conditions: whole blood.
Data set [11] can be described thus: Volume of distribution at steady state in Sprague-Dawley rat at 1 mg/kg, iv and 2 mg/kg, po. The following applies: in vivo, read-out: Vdss. The class given is ADME, organism-based.
Data set [12] can be described thus: Half life in Sprague-Dawley rat at 1 mg/kg, iv and 2 mg/kg, po. Type of data set: ADME, organism-based. The following applies: in vivo.
Data set [13] is described as follows: Oral bioavailability in Sprague-Dawley rat at 2 mg/kg. Type of data set: ADME, organism-based. The following applies: in vivo.
Data set [14] deals with T1, Gamma-secretase (Homo sapiens) (UniProt Q96BI3+Q9NZ42+Q8WW43+P49768+Q92542+P49810). Put plainly: Inhibition of gamma-secretase in human SHSY5Y cells expressing human recombinant Swedish variant of APP K595N/M596L assessed as reduction of amyloid beta42 level after 24 hrs by DELFIA assay. Type of data set: cell-based. As to conditions: SH-SY5Y.
The target in data set [15] is T1, Gamma-secretase (Homo sapiens). The data set is described as follows: Inhibition of gamma-secretase in human SHSY5Y cells expressing human recombinant Swedish variant of APP K595N/M596L assessed as reduction of amyloid beta40 level after 24 hrs by DELFIA assay. The class given is cell-based. As to conditions: SH-SY5Y.
For data set [16] the target is unchanged. Put plainly: Inhibition of gamma-secretase in human SHSY5Y cells expressing human recombinant Swedish variant of APP K595N/M596L assessed as increase of total amyloid beta level after 24 hrs by DELFIA assay. Type of data set: cell-based. As to conditions: SH-SY5Y.

As to `COc1cc(-c2nnc(N[C@@H](C)c3ccc(F)cc3)s2)ccc1-n1cnc(C)c1`, the pIC50 (usually the IC50 on a negative log10 scale, so that one unit is a factor of ten) on Gamma-secretase [1] came out at 7.1; at Gamma-secretase [2], 6.2.
`COc1cc(-c2ccc(N[C@@H](C)c3ccc(F)cc3)nc2)ccc1-c1ccnc(C)c1`: the pIC50 was determined as 6.3 at Gamma-secretase [1] and 5.2 on Gamma-secretase [2]. For the same compound, the IC50 (commonly the point on the concentration scale where inhibition reaches its midpoint) in data set [3] was 6.31 µM.
Consider `COc1cc(-c2cnc(N[C@@H](C)c3ccc(F)cc3)nc2)ccc1-n1cnc(C)c1`, for which the pIC50 worked out at 6.7 at Gamma-secretase [1] and 6 at Gamma-secretase [2]. Further, the half-inhibitory concentration (IC50) in [3] is 10 µM.
With `Cc1cn(-c2ccc(-c3ccc(N[C@@H](C)c4ccc(F)cc4)nc3)cc2Cl)cn1`, the figures for the pIC50 on Gamma-secretase [1] and on Gamma-secretase [2] were 6.4 and 5.7, respectively.
On to `COc1cc(-c2ccc(N[C@@H](C)c3ccc(F)cc3)nc2)ccc1-n1cnc(C)c1` [listing 1 of 2 here], for which the negative logarithm of the IC50 (pIC50) was found to be 6.9 at Gamma-secretase [1] and 6.1 at Gamma-secretase [2]. For the same compound, in [3], the concentration for half-maximal inhibition (IC50) is 10 µM. In addition, the Activity result with SH-SY5Y was “Non-toxic”; in the data set on Rattus norvegicus [5] it was 27.6%; in the data set with Rattus norvegicus [7], “Non-toxic”; in the data set on Rattus norvegicus [8], “Non-toxic”; with Rattus norvegicus [9], “Non-toxic”. For the same compound, the concentration was 4.98 µM in the data set on Blood and 8.75 µM with Brain. For the same compound, the Kp in data set [4] was 1.74. Also, the concentration at 6 h in data set [6] was 8.86 µM.
For the compound `COc1cc(-c2ccc(N[C@@H](C)c3ccc(F)cc3)cn2)ccc1-n1cnc(C)c1`, the values for the pIC50 on Gamma-secretase [1] and at Gamma-secretase [2] were 6.2 and 5, respectively. Moreover, the IC50 in [3] is 6.31 µM.
As to `COc1cc(-c2ccc(N[C@@H](C)c3ccc(F)cc3)nc2)ccc1-c1cc(C)ns1`, the results for the pIC50 on Gamma-secretase [1] and on Gamma-secretase [2] were 6.6 and 5.7, respectively. In data set [3], the 50% inhibitory concentration (IC50) is 15.8 µM.
With `CNC(=O)c1cc(-c2ccc(N[C@@H](C)c3ccc(F)cc3)nc2)ccc1-n1cnc(C)c1`, the pIC50 on Gamma-secretase [1] and at Gamma-secretase [2] was less than 4 throughout.
Regarding `Cc1cn(-c2ccc(-c3ccc(N[C@@H](C)c4ccc(F)cc4)nc3)cc2OC(C)C)cn1`, the negative logarithm of the IC50 (pIC50) stood at 5.5 on Gamma-secretase [1] and 5.1 on Gamma-secretase [2].
The like results for `COc1cc(-c2noc(N[C@@H](C)c3ccc(F)cc3)n2)ccc1-n1cnc(C)c1` were, in that order, 6.5 and 4.5.
In the case of `COc1cc(-c2ccc(N[C@@H](C)c3ccc(F)cc3)nc2)ccc1-c1sc(C)nc1C`, the negative logarithm of the IC50 (pIC50) at Gamma-secretase [1] was found to be 6.4; on Gamma-secretase [2], 5.3. In addition, in data set [3], the IC50 is 10 µM.
In the case of `COc1cc(-c2cc(C)c(N[C@@H](C)c3ccc(F)cc3)nn2)ccc1-n1cnc(C)c1`, the Activity in the data set with Rattus norvegicus [5] is listed as 45.7%; in the data set on Rattus norvegicus [7], “Non-toxic”; in the data set on Rattus norvegicus [8] it was “Non-toxic”; in the data set with Rattus norvegicus [9] it was “Non-toxic”. In addition, in [6], the concentration at 6 h was found to be 10.4 µM.
`Cc1cn(-c2ccc(-c3ccc(N[C@@H](C)c4ccc(F)cc4)nc3)cc2C)cn1`: the results for the pIC50 at Gamma-secretase [1] and at Gamma-secretase [2] were 5.2 and 4.8, respectively.
The compound `COc1cc(-c2ccc(N[C@@H](C)c3ccc(F)cc3)nc2)ccc1-n1cnc(C)c1.Cl` had a clearance in data set [10] of 12.2 mL/min/kg. The Vd in [11] was found to be 3.7 L/kg. Also, the half-life (as a rule, the time needed for the level to fall by half in the phase considered) in data set [12] was 3.3 h. The bioavailability (in general, dose-corrected exposure relative to a reference, in per cent) in data set [13] was determined as 100%.
Turning to `Cc1cn(-c2ccc(-c3ccc(N[C@@H](C)c4ccc(F)cc4)nc3)cc2N(C)C)cn1`, the values for the negative logarithm of the IC50 (pIC50) on Gamma-secretase [1] and on Gamma-secretase [2] were 4.3 and 4.4, respectively.
The like results for `Cc1cn(-c2ccc(-c3ccc(N[C@@H](C)c4ccc(F)cc4)nc3)cc2-c2ccccc2)cn1` were, in that order, 4.8 and 5.
`COc1cc(-c2cnc(N[C@@H](C)c3ccc(F)cc3)s2)ccc1-n1cnc(C)c1`: the pIC50 was 6.1 on Gamma-secretase [1] and 4.3 at Gamma-secretase [2].
For `CCOc1cc(-c2ccc(N[C@@H](C)c3ccc(F)cc3)nc2)ccc1-n1cnc(C)c1`, the pIC50 at Gamma-secretase [1] was 6.3; at Gamma-secretase [2] it was 5.3.
On to `COc1cc(-c2ncc(N[C@@H](C)c3ccc(F)cc3)cn2)ccc1-n1cnc(C)c1`, for which the pIC50 was 6.6 on Gamma-secretase [1] and 5.9 on Gamma-secretase [2]. In addition, the IC50 in [3] is 10 µM.
`COc1cc(-c2ccc(N[C@@H](C)c3ccc(F)cc3)nc2)ccc1-c1ccnnc1`: the negative-log IC50 (pIC50) on Gamma-secretase [1] worked out at 6.4; at Gamma-secretase [2], 5.7. Besides, the concentration for half-maximal inhibition (IC50) in data set [3] was 12.6 µM.
Regarding `COc1cc(-c2ccc(N[C@@H](C)c3ccc(F)cc3)nc2)ccc1-n1cnc(C)c1` [listing 2 of 2 here], the inhibition entry in data set [14] and in [15] was “Dose-dependent effect” each time. Further, in [16], the inhibition result was “Active”.
